Patent US9302999B2, “Substituted triazoles as herbicides” (E. I. DU PONT DE NEMOURS AND COMPANY, priority 2012, dated 2016)

Experiments:
Type in all cases: in vivo
[1] = system: barley (winter barley, Hordeum vulgare); experiment: Test C postemergence: barley
Summary of the method: (§1)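 Visual 0–100 injury score vs untreated controls (0 none, 100 complete control), taken 13–15 d after treatment. Postemergence spray on potted plants, 2–18 cm, 1–4 leaves; greenhouse.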

[2] = system: nightshade (eastern black nightshade, Solanum ptycanthum); experiment: Test C pre-/postemergence: nightshade; details: Preemergence
Summary of the method: (§2)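 Preemergence on seeds in loam/sand, postemergence on 2–18 cm (1–4-leaf) plants in peat-based medium; compounds in non-phytotoxic solvent with surfactant. After 13–15 days in greenhouse, visual rating versus controls, 0 (no effect) to 100 (complete control).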

[3] = system: bromegrass, downy (downy bromegrass, Bromus tectorum); experiment: Test C pre-/postemergence: bromegrass, downy
Summary of the method: as §2

[4] = system: deadnettle (henbit deadnettle, Lamium amplexicaule); experiment: Test C postemergence: deadnettle
Summary of the method: as §1

[5] = system: Russian thistle (Salsola kali); experiment: Test C pre-/postemergence: Russian thistle; details: Preemergence
Description: Seeds of plant species selected from blackgrass (Alopecurus myosuroides), bromegrass, downy (downy bromegrass, Bromus tectorum), foxtail, green (green foxtail, Setaria viridis), ryegrass, Italian (Italian ryegrass, Lolium multiflorum), winter wheat (Triticum aestivum), wild oat (Avena fatua), galium (catchweed bedstraw, Galium aparine), bermudagrass (Cynodon dactylon), surinam grass (Brachiaria decumbens), cocklebur (common cocklebur, Xanthium strumarium), corn (Zea mays), large crabgrass (Digitaria sanguinalis), woolly cupgrass (Eriochloa villosa), foxtail, giant (giant foxtail, Setaria faberii), goosegrass (Eleusine indica), johnsongrass (Sorghum halepense), kochia (Kochia scoparia), lambsquarters (Chenopodium album), morningglory (Ipomoea coccinea), nightshade (eastern black nightshade, Solanum ptycanthum), nutsedge, yellow (yellow nutsedge, Cyperus esculentus), pigweed (Amaranthus retroflexus), ragweed (common ragweed, Ambrosia elation), soybean (Glycine max), common (oilseed) sunflower (Helianthus annuus), Russian thistle (Salsola kali) and velvetleaf (Abutilon theophrasti) were planted into a blend of loam soil and sand and treated preemergence with test chemicals formulated in a non-phytotoxic solvent mixture which included a surfactant.
At the same time, plants selected from these crop and weed species and also barley (winter barley, Hordeum vulgare), canarygrass (Phalaris minor), chickweed (common chickweed, Stellaria media) windgrass (Apera spica-venti) and deadnettle (henbit deadnettle, Lamium amplexicaule) were planted in pots containing Redi-Earth® planting medium (Scotts Company, 14111 Scottslawn Road, Marysville, Ohio 43041) comprising spaghnum peat moss, vermiculite, wetting agent and starter nutrients and treated with postemergence applications of test chemicals formulated in the same manner. Plants ranged in height from 2 to 18 cm (1- to 4-leaf stage) for postemergence treatments.
Treated plants and controls were maintained in a greenhouse for 13 to 15 days, after which time all species were compared to controls and visually evaluated. Plant response ratings, summarized in Table C, are based on a scale of 0 to 100 where 0 is no effect and 100 is complete control. A dash (-) response means no test result.

[6] = system: surinam grass (Brachiaria decumbens); experiment: Test C pre-/postemergence: surinam grass
Summary of the method: as §2

[7] = system: barnyardgrass (Echinochloa crus-galli); experiment: Test C flooded paddy test: barnyardgrass; details: Echinochloa crus-galli, scale 0 to 100 (0 no effect, 100 complete control), read-out: Plant response rating, Barnyardgrass
Summary of the method: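 Plants were grown to the 2-leaf stage, pots flooded to 3 cm above soil, and test compounds applied directly to the paddy water, with that depth held throughout. After 13 to 15 days in a greenhouse, injury was visually rated against controls on a 0 (no effect) to 100 (complete control) scale.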

[8] = system: chamomile (scentless chamomile, Matricaria inodora); experiment: Test D pre-/postemergence: chamomile
Summary of the method: (§3)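 Pre- and postemergence herbicide screen. Soil for pre: silt loam; post medium: peat moss, vermiculite, wetting agent, starter nutrients. Plant stage at post: 1- to 4-leaf. Readout: visual % control, 14–21 days.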

[9] = system: ryegrass, Italian (Italian ryegrass, Lolium multiflorum); experiment: Test D pre-/postemergence: ryegrass, Italian
Summary of the method: as §3

[10] = 31 g ai/ha, scale 0 to 100 (0 no effect, 100 complete control)
[11] = 62 g ai/ha, scale 0 to 100 (0 no effect, 100 complete control)
[12] = 125 g ai/ha, scale 0 to 100, 0 no effect, 100 complete control
[13] = 31 g ai/ha, scale of 0 to 100, 0 is no effect, 100 is complete control
[14] = 62 g ai/ha, scale of 0 to 100, 0 is no effect, 100 is complete control
[15] = 250 g ai/ha, scale 0 to 100, 0 no effect, 100 complete control
[16] = Postemergence, 31 g ai/ha, scale 0 to 100 (0 no effect, 100 complete control)
[17] = Postemergence, 62 g ai/ha, scale 0 to 100 (0 no effect, 100 complete control)
[18] = Postemergence, 125 g ai/ha, scale 0 to 100, 0 no effect, 100 complete control
[19] = Postemergence, 250 g ai/ha, scale 0 to 100
[20] = Preemergence, 31 g ai/ha, scale of 0 to 100, 0 is no effect, 100 is complete control
[21] = Preemergence, 62 g ai/ha, scale of 0 to 100, 0 is no effect, 100 is complete control
[22] = Preemergence, 125 g ai/ha, scale 0 to 100, 0 no effect, 100 complete control
[23] = Preemergence, 250 g ai/ha, scale 0 to 100, 0 no effect, 100 complete control
[24] = Postemergence, 16 g ai/ha, scale 0 to 100
[25] = Preemergence, 16 g ai/ha, scale 0 to 100 (0 no effect, 100 complete control)
[26] = Preemergence, 31 g ai/ha, scale 0 to 100 (0 no effect, 100 complete control)
[27] = Preemergence, 62 g ai/ha, scale 0 to 100
[28] = Preemergence, 125 g ai/ha, scale 0 to 100

SMILES	Plant response rating, Barley [1, 10]	Plant response rating, Barley [1, 11]	Plant response rating, Barley [1, 12]	Plant response rating, Barley ([1]; 250 g ai/ha, scale 0 to 100)	Plant response rating, Nightshade [2, 13]	Plant response rating, Nightshade [2, 14]	Plant response rating, Nightshade [2, 12]	Plant response rating, Nightshade [2, 15]	Plant response rating, Bromegrass, Downy [3, 16]	Plant response rating, Bromegrass, Downy [3, 17]	Plant response rating, Bromegrass, Downy [3, 20]	Plant response rating, Bromegrass, Downy [3, 22]	Plant response rating, Bromegrass, Downy [3, 23]	Plant response rating, Russian Thistle [5, 14]	Plant response rating, Russian Thistle [5, 12]	Plant response rating, Russian Thistle [5, 15]	Plant response rating, Surinam Grass [6, 20]	Plant response rating, Surinam Grass [6, 21]	Plant response rating, Surinam Grass [6, 22]	Plant response rating, Surinam Grass [6, 23]	also measured
Fc1ccc(-n2nc(Cc3ccnc(C(F)(F)F)c3)c(OCC(F)(F)F)n2)cc1 [Compound 142]	20	35	40	45	95	95	98	98	25	45	20	90	90	80	90	90	60	75	98	98	Plant response rating, Bromegrass, Downy [3, 18]: 45; Plant response rating, Bromegrass, Downy [3, 19]: 50; Plant response rating, Bromegrass, Downy [3, 21]: 60; Plant response rating, Deadnettle [4, 10]: 100; Plant response rating, Deadnettle [4, 11]: 100; Plant response rating, Deadnettle [4, 12]: 100; Plant response rating, Deadnettle ([4]; 250 g ai/ha, scale 0 to 100): 100; Plant response rating, Surinam Grass [6, 16]: 40; Plant response rating, Surinam Grass [6, 17]: 40; Plant response rating, Surinam Grass [6, 18]: 45; Plant response rating, Surinam Grass [6, 19]: 50
Cc1nn(-c2ccc(C(F)(F)F)cc2)nc1Cc1ccnc(C(F)(F)F)c1 [Compound 47, 4-[[5-methyl-2-[4-(trifluoromethyl)phenyl]-2H-1,2,3-triazol-4-yl]methyl]-2-(trifluoromethyl)pyridine]	35	45	50	55	45	98	98	98	10	30	15	90	100	100	100	100	5	20	65	65	pest or weed control at 62 g/ha ([7]; Flood (flooded paddy test), 62 g ai/ha, visual rating after 13 to 15 days): 50%; pest or weed control at 125 g/ha ([7]; Flood (flooded paddy test), 125 g ai/ha, visual rating after 13 to 15 days): 80%; pest or weed control at 250 g/ha ([7]; Flood (flooded paddy test), 250 g ai/ha, visual rating after 13 to 15 days): 80%; pest or weed control at 31 g/ha ([7]; Flood, 31 g ai/ha): 40%; Plant response rating, Bromegrass, Downy [3, 18]: 50; Plant response rating, Bromegrass, Downy [3, 19]: 65; Plant response rating, Bromegrass, Downy ([3]; Preemergence, 62 g ai/ha, scale 0 to 100, 0 no effect, 100 complete control): 40; Plant response rating, Deadnettle [4, 10]: 95; Plant response rating, Deadnettle [4, 11]: 100; Plant response rating, Deadnettle [4, 12]: 100; Plant response rating, Deadnettle ([4]; 250 g ai/ha, scale 0 to 100): 100; Plant response rating, Russian Thistle [5, 13]: 85; Plant response rating, Surinam Grass [6, 16]: 5; Plant response rating, Surinam Grass [6, 17]: 10; Plant response rating, Surinam Grass [6, 18]: 60; Plant response rating, Surinam Grass [6, 19]: 60
Cc1nn(-c2ccc(F)c(C(F)(F)F)c2)nc1Oc1ccnc(C(F)(F)F)c1 [Compound 147]					98	98	98	98			10	85	90	90	90	90	55	80	95	95	Plant response rating: Chamomile [8, 16]: 60; Plant response rating: Chamomile [8, 17]: 75; Plant response rating: Chamomile [8, 18]: 80; Plant response rating, Chamomile [8, 24]: 45; Plant response rating, Chamomile [8, 25]: 25; Plant response rating, Chamomile [8, 26]: 15; Plant response rating, Chamomile [8, 27]: 90; Plant response rating, Chamomile [8, 28]: 95; Plant response rating, Bromegrass, Downy [3, 21]: 45; Plant response rating: Ryegrass, Italian [9, 16]: 10; Plant response rating: Ryegrass, Italian [9, 17]: 15; Plant response rating: Ryegrass, Italian [9, 18]: 35; Plant response rating, Ryegrass, Italian [9, 24]: 5; Plant response rating, Ryegrass, Italian [9, 25]: 0; Plant response rating, Ryegrass, Italian [9, 26]: 5; Plant response rating, Ryegrass, Italian [9, 27]: 15; Plant response rating, Ryegrass, Italian [9, 28]: 30; Plant response rating, Russian Thistle [5, 13]: 0
